From ChEMBL document CHEMBL1909046, “DrugMatrix in vitro pharmacology data”

Tests used:
[1] = molecular target: T1, Alpha-1D adrenergic receptor (Homo sapiens, UniProt P25100); assay type: cell membranes, HEK293, Membrane; further: in other assays of this panel Not Active means under 50% inhibition at 10 µM
T1 sequence (P25100 whole entry): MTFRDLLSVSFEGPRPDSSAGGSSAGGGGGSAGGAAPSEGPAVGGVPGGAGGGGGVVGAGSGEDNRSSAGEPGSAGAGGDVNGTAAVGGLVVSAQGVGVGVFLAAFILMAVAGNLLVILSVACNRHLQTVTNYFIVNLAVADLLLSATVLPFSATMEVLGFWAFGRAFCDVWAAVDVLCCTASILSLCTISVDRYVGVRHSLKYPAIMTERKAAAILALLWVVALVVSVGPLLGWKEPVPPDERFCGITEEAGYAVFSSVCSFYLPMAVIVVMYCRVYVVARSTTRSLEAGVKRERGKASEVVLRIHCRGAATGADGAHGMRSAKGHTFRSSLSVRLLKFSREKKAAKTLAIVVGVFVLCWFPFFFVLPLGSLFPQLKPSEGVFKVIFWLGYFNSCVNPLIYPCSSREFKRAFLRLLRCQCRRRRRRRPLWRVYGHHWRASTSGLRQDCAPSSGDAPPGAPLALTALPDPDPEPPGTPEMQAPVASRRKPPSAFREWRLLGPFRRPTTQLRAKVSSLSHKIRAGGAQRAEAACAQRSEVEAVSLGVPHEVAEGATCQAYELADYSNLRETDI

[2] = molecular target: Sodium-dependent noradrenaline transporter (Homo sapiens, UniProt P23975); assay: DRUGMATRIX: Norepinephrine Transporter radioligand binding (ligand: [125I] RTI-55); assay type: cell membranes, MDCK, Membrane; details: Not Active = under 50% inhibition at 10 µM
Sodium-dependent noradrenaline transporter, sequence (P23975 whole entry): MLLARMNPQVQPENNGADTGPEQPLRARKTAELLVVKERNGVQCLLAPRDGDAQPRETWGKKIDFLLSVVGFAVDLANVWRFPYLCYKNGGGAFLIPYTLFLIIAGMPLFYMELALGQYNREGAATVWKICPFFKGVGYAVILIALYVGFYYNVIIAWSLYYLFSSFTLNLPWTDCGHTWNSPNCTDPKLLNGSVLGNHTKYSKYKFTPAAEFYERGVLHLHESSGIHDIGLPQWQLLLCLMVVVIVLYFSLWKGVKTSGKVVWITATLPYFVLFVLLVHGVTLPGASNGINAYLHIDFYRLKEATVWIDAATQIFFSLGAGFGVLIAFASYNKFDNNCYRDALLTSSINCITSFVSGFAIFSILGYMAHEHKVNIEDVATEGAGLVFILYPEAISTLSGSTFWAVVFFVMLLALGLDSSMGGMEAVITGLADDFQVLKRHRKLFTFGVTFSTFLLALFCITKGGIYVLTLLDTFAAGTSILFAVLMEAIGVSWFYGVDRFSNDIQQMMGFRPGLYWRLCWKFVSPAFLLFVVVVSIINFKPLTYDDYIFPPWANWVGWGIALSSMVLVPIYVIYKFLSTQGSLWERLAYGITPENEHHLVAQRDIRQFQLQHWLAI

Cytochrome P450 1A2 = molecular target: T2, Cytochrome P450 1A2 (Homo sapiens, UniProt P05177); details: bti-tn-5b1-4; further: in other assays of this panel Not Active means under 50% inhibition at 10 µM
T2 sequence (P05177 whole entry): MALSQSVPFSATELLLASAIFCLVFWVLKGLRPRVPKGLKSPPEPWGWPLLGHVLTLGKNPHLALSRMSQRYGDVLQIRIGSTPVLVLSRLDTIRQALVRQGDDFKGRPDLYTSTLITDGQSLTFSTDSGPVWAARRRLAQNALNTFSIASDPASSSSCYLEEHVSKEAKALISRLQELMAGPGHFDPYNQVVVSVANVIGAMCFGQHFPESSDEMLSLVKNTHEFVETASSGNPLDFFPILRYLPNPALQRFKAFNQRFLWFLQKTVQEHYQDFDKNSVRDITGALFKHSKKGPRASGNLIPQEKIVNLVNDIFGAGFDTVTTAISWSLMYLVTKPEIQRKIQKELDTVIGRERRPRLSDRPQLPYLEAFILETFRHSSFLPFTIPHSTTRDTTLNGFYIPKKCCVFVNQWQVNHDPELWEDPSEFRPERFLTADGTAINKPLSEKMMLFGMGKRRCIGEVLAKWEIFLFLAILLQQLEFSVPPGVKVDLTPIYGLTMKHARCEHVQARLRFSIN

Cytochrome P450 2C9 = Cytochrome P450 2C9 (Homo sapiens, UniProt P11712); details: bti-tn-5b1-4; further: in other assays of this panel Not Active means under 50% inhibition at 10 µM
Cytochrome P450 2C9, sequence (P11712 whole entry): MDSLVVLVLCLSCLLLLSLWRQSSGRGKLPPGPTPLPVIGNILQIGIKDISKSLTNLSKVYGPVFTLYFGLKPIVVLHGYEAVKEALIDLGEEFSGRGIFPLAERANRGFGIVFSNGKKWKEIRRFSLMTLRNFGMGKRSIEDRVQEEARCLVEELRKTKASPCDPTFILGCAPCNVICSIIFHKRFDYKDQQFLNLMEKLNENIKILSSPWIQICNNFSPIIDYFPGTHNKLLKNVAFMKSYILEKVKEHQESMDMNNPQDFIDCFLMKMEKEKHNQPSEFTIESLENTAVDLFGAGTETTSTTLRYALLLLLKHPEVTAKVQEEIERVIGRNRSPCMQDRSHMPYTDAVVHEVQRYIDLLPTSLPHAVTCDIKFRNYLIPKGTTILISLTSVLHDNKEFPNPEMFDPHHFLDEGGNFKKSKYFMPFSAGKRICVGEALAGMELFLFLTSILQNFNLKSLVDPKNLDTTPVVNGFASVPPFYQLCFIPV

Cytochrome P450 2D6 = Cytochrome P450 2D6 (Homo sapiens, UniProt P10635); details: bti-tn-5b1-4; further: in other assays of this panel Not Active means under 50% inhibition at 10 µM
Cytochrome P450 2D6, sequence (P10635 whole entry): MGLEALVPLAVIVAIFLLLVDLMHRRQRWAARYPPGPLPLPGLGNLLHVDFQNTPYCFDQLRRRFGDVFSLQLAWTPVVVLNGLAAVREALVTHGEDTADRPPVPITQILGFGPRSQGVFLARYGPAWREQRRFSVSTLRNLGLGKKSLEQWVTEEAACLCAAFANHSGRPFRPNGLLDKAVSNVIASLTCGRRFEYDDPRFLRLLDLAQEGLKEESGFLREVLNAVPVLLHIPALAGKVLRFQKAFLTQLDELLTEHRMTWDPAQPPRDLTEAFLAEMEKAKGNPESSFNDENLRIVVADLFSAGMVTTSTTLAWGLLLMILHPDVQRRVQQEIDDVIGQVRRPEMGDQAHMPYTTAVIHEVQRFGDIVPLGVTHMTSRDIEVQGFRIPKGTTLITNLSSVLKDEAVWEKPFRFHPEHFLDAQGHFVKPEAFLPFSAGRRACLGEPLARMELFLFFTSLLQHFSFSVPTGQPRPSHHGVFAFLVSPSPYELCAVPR

Cytochrome P450 3A4 = Cytochrome P450 3A4 (Homo sapiens, UniProt P08684); details: bti-tn-5b1-4; further: in other assays of this panel Not Active means under 50% inhibition at 10 µM
Cytochrome P450 3A4, sequence (P08684 whole entry): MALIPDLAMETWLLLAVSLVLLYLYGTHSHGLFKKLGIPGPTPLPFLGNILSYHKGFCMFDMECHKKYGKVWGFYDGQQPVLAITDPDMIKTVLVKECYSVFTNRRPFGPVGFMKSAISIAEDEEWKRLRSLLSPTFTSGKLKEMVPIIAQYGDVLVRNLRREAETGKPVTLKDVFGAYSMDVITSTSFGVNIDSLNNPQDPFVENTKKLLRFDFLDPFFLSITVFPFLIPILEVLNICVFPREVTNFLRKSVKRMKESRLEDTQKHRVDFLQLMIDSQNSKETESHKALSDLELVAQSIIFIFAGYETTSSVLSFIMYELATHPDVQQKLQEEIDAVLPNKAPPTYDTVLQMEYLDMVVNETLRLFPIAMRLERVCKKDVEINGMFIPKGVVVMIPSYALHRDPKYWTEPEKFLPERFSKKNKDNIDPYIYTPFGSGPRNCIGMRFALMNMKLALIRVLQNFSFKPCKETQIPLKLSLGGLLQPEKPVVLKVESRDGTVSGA

Estrogen receptor = molecular target: T3, Estrogen receptor (Homo sapiens, UniProt P03372); details: sf9; further: in other assays of this panel Not Active means under 50% inhibition at 10 µM
T3 sequence (P03372 whole entry): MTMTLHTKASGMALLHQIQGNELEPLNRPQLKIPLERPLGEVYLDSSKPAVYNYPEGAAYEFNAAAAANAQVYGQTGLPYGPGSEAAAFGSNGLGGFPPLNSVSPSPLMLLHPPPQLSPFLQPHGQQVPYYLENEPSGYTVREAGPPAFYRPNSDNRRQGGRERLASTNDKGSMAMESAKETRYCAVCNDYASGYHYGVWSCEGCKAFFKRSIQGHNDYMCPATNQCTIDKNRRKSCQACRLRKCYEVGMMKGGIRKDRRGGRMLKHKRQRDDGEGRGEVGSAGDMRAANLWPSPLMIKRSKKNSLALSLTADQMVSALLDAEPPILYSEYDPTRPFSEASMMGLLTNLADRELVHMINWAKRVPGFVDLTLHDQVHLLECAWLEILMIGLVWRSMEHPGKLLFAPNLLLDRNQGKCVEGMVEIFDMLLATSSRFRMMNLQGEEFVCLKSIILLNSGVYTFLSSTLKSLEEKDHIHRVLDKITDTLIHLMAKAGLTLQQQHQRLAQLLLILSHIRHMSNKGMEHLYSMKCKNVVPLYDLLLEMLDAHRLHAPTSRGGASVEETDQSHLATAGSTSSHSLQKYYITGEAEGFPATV

Glucocorticoid receptor = molecular target: T4, Glucocorticoid receptor (Homo sapiens, UniProt P04150); details: hela s3; further: in other assays of this panel Not Active means under 50% inhibition at 10 µM
T4 sequence (P04150 whole entry): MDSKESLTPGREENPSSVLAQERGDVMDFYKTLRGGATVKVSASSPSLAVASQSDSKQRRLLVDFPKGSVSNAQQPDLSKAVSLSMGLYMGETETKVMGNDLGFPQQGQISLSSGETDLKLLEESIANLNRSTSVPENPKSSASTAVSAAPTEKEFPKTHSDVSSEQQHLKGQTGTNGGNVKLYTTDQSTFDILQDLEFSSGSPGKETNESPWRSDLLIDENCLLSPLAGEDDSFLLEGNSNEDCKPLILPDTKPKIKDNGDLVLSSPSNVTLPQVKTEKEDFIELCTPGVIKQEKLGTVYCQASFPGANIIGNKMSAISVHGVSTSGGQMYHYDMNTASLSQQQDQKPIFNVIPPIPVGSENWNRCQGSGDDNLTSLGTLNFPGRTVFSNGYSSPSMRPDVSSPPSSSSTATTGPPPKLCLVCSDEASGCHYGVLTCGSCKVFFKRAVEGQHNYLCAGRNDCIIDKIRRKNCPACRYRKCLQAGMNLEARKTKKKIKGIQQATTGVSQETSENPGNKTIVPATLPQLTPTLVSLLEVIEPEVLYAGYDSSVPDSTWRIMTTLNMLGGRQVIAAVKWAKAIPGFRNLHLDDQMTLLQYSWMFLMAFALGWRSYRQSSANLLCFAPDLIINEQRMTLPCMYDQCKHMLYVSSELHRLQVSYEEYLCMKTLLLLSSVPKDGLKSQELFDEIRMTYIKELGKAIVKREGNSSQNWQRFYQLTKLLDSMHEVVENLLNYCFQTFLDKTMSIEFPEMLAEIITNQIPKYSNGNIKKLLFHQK

[3] = molecular target: Voltage-gated inwardly rectifying potassium channel KCNH2 (Homo sapiens, UniProt Q12809); details: hek293; further: in other assays of this panel Not Active means under 50% inhibition at 10 µM
Voltage-gated inwardly rectifying potassium channel KCNH2, sequence (Q12809 whole entry): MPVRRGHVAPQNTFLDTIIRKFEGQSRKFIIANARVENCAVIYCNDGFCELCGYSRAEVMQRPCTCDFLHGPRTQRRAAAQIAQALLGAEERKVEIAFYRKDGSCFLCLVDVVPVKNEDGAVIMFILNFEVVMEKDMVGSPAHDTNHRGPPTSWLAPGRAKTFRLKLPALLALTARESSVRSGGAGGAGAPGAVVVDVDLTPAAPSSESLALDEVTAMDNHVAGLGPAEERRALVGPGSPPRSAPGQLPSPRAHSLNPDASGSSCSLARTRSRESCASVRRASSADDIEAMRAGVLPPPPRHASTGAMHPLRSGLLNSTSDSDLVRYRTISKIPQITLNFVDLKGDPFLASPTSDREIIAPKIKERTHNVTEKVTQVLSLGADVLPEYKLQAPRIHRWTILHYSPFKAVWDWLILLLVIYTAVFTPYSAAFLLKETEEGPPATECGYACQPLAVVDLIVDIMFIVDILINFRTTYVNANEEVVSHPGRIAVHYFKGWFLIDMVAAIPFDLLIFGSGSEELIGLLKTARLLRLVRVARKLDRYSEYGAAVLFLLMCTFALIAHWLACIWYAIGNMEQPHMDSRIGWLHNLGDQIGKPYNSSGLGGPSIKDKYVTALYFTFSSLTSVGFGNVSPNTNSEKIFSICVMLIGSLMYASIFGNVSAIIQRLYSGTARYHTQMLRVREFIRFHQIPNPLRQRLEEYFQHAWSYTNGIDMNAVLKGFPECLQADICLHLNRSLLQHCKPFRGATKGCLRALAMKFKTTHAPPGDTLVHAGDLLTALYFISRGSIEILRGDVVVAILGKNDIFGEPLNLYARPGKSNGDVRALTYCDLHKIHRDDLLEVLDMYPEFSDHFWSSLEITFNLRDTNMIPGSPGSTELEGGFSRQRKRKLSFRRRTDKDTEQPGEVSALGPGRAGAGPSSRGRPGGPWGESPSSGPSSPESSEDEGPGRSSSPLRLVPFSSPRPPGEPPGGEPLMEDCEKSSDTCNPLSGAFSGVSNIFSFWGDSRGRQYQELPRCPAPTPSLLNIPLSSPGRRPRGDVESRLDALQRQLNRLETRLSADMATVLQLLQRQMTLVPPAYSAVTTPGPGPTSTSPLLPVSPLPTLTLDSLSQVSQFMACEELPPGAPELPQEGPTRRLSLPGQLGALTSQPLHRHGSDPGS

Estrogen receptor beta = Estrogen receptor beta (Homo sapiens, UniProt Q92731); details: sf9; further: in other assays of this panel Not Active means under 50% inhibition at 10 µM
Estrogen receptor beta, sequence (Q92731 whole entry): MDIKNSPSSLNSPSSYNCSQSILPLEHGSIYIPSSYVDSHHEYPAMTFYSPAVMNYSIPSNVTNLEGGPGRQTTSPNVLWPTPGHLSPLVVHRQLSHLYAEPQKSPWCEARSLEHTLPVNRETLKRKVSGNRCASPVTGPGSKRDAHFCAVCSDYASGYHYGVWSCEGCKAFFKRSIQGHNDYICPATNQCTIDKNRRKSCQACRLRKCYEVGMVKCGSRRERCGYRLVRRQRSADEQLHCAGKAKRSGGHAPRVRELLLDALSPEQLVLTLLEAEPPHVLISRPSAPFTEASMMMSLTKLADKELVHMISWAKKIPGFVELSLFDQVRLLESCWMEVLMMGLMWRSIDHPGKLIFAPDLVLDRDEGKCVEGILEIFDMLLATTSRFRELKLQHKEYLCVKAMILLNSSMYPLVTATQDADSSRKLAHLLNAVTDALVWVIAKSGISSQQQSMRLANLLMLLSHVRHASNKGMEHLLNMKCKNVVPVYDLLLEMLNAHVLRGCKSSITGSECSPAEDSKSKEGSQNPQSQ

SMILES	IC50 ([1]; hek293)	IC50 ([2]; mdck)	IC50 (Cytochrome P450 1A2)	Ki (Cytochrome P450 1A2)	IC50 (Cytochrome P450 2C9)	Ki (Cytochrome P450 2C9)	IC50 (Cytochrome P450 2D6)	Ki (Cytochrome P450 2D6)	IC50 (Cytochrome P450 3A4)	Ki (Cytochrome P450 3A4)	IC50 (Estrogen receptor)	IC50 (Glucocorticoid receptor)	IC50 [3]	Ki [3]	IC50 ([2]; read-out: IC50) [µM]	Ki ([2]; read-out: Ki) [µM]	IC50 (Estrogen receptor beta)	IC50 ([1]; read-out: IC50) [µM]	Ki ([1]; read-out: Ki) [µM]
CC1=C(/C=C/C(C)=C/C=C/C(C)=C\C(=O)O)C(C)(C)CCC1 [ISOTRETINOIN]	Not Active	Not Active	Not Active	Not Active	Not Active	Not Active	Not Active	Not Active	Not Active	Not Active	Not Active	Not Active	–	–	–	–	–	–	–
COS(C)(=O)=O [METHANESULFONIC ACID METHYL ESTER]	Not Active	Not Active	Not Active	Not Active	Not Active	Not Active	Not Active	Not Active	Not Active	Not Active	Not Active	Not Active	Not Active	Not Active	–	–	–	–	–
C[C@](N)(Cc1ccc(O)cc1)C(=O)O [METYROSINE]	Not Active	Not Active	Not Active	Not Active	Not Active	Not Active	Not Active	Not Active	Not Active	Not Active	Not Active	Not Active	Not Active	Not Active	–	–	–	–	–
Clc1ccc(C(c2ccccc2Cl)C(Cl)Cl)cc1 (configuration not stated) [MITOTANE]	Not Active	–	Not Active	Not Active	Not Active	Not Active	Not Active	Not Active	Not Active	Not Active	–	Not Active	Not Active	Not Active	0.819	0.812	Not Active	–	–
CC[C@H]1OC(=O)[C@H](C)[C@@H](O[C@H]2C[C@@](C)(OC)[C@@H](O)[C@H](C)O2)[C@H](C)[C@@H](O[C@@H]2O[C@H](C)C[C@H](N(C)C)[C@H]2O)[C@](C)(O)C[C@@H](C)/C(=N\OCOCCOC)[C@H](C)[C@@H](O)[C@]1(C)O [ROXITHROMYCIN]	Not Active	Not Active	Not Active	Not Active	Not Active	Not Active	Not Active	Not Active	Not Active	Not Active	Not Active	Not Active	Not Active	Not Active	–	–	–	–	–
CSc1ccc2c(c1)N(CCC1CCCCN1C)c1ccccc1S2 (configuration not stated) [THIORIDAZINE]	–	–	–	–	Not Active	Not Active	–	–	Not Active	Not Active	Not Active	Not Active	–	–	–	–	–	0.00589	0.0029
COc1cccc(C2(O)CCCCC2CN(C)C)c1 (configuration not stated) [TRAMADOL]	Not Active	–	Not Active	Not Active	Not Active	Not Active	Not Active	Not Active	–	–	Not Active	Not Active	Not Active	Not Active	–	–	–	–	–
COc1cc(C(=O)NC2CCCNC2)cc(OC)c1OC (configuration not stated) [TROXIPIDE]	Not Active	Not Active	Not Active	Not Active	Not Active	Not Active	Not Active	Not Active	Not Active	Not Active	–	Not Active	Not Active	Not Active	–	–	Not Active	–	–
